This is an account of results in PubChem BioAssay AID463204 (Broad Institute, 2010).

The structures appear in SMILES notation. Activity calls are given as the source filed them.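 How the source made its calls: active means AC50 no more than ten times the top concentration tested, that is within one log above it; inconclusive means flat curve fit with activity between 30% and 70%, or invalid poor fit; inactive means AC50 beyond ten times the top tested dose.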

The test has as its system S. cerevisiae Mot1-301 ts growth rescue, BacTiter-Glo ATP luminescence. In words: restored Mot1-301 yeast growth at 38.5C – whole organism, S. cerevisiae, Mot1-301 ts mutant, luminescence, dose retest, SUMOylation pathway inhibitor project, confirmation (AID 463204).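 Further: growth at restrictive 38.5 degrees C of Mot1-301 OY566 strain; actives raise luminescence by restoring growth of the ts mutant at high temperature.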
For `CC(=O)Nc1cccc(OCC(O)Cn2c(C)nc3ccccc32)c1` (stereo not drawn), the AC50 was > 42 µM (inactive). Turning to `CC1CCN(CCCOc2ccc(OCc3ccccc3)cc2)CC1`, the AC50 was > 42 µM (inactive). Consider `COc1ccccc1NC(=O)c1nn(-c2cccc(C(F)(F)F)c2)ccc1=O`, for which the AC50 was > 42 µM (inactive). In the case of `COc1ccc(-c2cn(-c3ccc(C)cc3)c(=O)n2CC(=O)Nc2ccc(OC)c(OC)c2)cc1` it was > 42 µM (inactive); in that of `COc1cccc(N2CCN(C3CCCC(C)C3)CC2)c1` (stereo not drawn), > 42 µM (inactive); in that of `COc1cc(NC(=S)N2CCN(C(=O)C3CCCO3)CC2)c(OC)cc1Cl` (stereo not drawn), > 42 µM (inactive). Take `CC1(C)Oc2ccc3ccc(=O)oc3c2/C(=C/Nc2ccc(O)cc2)C1=O`: the AC50 is > 42 µM (inactive). For `O=C(CCc1ccccc1)N1CCN(c2ccccc2F)CC1`, the AC50 was > 42 µM (inactive). The same measure for `O=C(Cc1ccc(Cl)cc1Cl)OCC(=O)c1ccc[nH]1`: > 42 µM (inactive). The same measure for `Cc1cc(C)n(CCCNC(=O)CN(C)S(=O)(=O)c2ccc(Cl)cc2)n1`: > 42 µM (inactive); for `COc1ccc(CCNC(=O)c2cc(-c3ccco3)on2)cc1OC`: > 42 µM (inactive); for `COc1ccc(OCCC(=O)c2ccc(OC)cc2)cc1`: > 42 µM (inactive). The same measure for `O=C(O)C1C2CCCCC2=C2CCCCC2C1C(=O)c1ccccc1` (stereo not drawn): 3.26 µM. On to `Cc1cc(C)cc(NC(=O)C2CCCN(S(=O)(=O)c3ccc4[nH]c(=O)ccc4c3)C2)c1` (stereo not drawn), for which the AC50 is > 42 µM (inactive). The same measure for `CN(CP(=O)(O)C(O)c1ccccc1)S(C)(=O)=O` (stereo not drawn): > 42 µM (inactive). In the case of `COc1cc2c(cc1OC)CN(S(=O)(=O)c1cccc(F)c1)CC2` it was > 42 µM (inactive). In the case of `c1ccc2c(c1)[nH]c1c(N3CCN(C4CCCCC4)CC3)ncnc12` it was > 42 µM (inactive); in that of `CCOc1ccccc1CN1CCN(Cc2ccon2)CC1CCO` (stereo not drawn), > 42 µM (inactive).

Take `COc1cc2c(cc1OC)CN(C(=O)Cc1c(F)cccc1Cl)CC2`: the AC50 was > 42 µM (inactive). In the case of `COC(=O)c1ccccc1NC(NC(=O)c1ccco1)C(=O)c1ccccc1` (stereo not drawn) it was > 42 µM (inactive). With `CCN(C(=O)COC(=O)c1cc([N+](=O)[O-])ccc1N1CCOCC1)C1CCCCC1`, the AC50 is > 42 µM (inactive). In the case of `CCOC(=O)c1c(C)n(C)c2cc(-c3ccc(C)cc3)c(O)cc12` it was > 42 µM (inactive); in that of `CN(C)c1ccc(C(=O)N2CCCC(CCC(=O)N3CCN(c4ccccn4)CC3)C2)cc1` (stereo not drawn), > 42 µM (inactive); in that of `O=C(NCc1ccccn1)C1CC(c2ccc(Cl)c(Cl)c2)=NO1` (stereo not drawn), > 42 µM (inactive). The same measure for `NNc1nc2sc3c(c2c(=O)n1-c1ccccc1)CCCC3`: > 42 µM (inactive). The same measure for `COCCn1c(-c2ccc(Cl)cc2)cnc1SCC(=O)NCCc1ccc(OC)c(OC)c1`: > 42 µM (inactive); for `O=C1N=C(N2CCOCC2)S/C1=C\c1cccnc1`: > 42 µM (inactive); for `C=C(C)Cn1c(N)cc(=O)nc1SCC(=O)Nc1cccc(C(F)(F)F)c1`: > 42 µM (inactive).

On to `O=C(CCCNC(=O)/C(=C/c1ccccc1F)NC(=O)c1ccccc1)OCc1ccccc1`, for which the AC50 was > 42 µM (inactive).

As for `COc1cc2nc(CSc3ncn[nH]3)[nH]c(=O)c2cc1OC`, the AC50 was > 42 µM (inactive). As for `C=CC[N+]1(CC#Cc2ccccc2)CCCC1`, the AC50 was > 42 µM (inactive). For `CCCNC(=O)Cn1nc(C)n2c(cc3cc(F)ccc32)c1=O`, the AC50 was > 42 µM (inactive). In the case of `CCCC(=O)N(CCN1CCOCC1)c1nc2ccc(OCC)cc2s1` it was > 42 µM (inactive); in that of `O=c1[nH]c(=O)n(C2CCCO2)cc1Br` (stereo not drawn), > 42 µM (inactive). The same measure for `COc1cc(COc2ccc3c(C)c(CC(=O)O)c(=O)oc3c2C)cc(OC)c1OC`: > 42 µM (inactive); for `CC(=O)Nc1ccc(/C(C)=N/NC(=O)c2ccncc2)cc1`: > 42 µM (inactive); for `Cc1nc(CSc2nnc3scc(-c4ccccc4)n23)cs1`: > 42 µM (inactive). Consider `COCCNC(=O)C(=O)N/N=C(\C)CC(=O)Nc1cccc(C(F)(F)F)c1`, for which the AC50 was > 42 µM (inactive). The same measure for `COc1cc(/C=C(\C#N)C(=O)Nc2ccc(C(=O)O)cc2)ccc1OC(=O)c1cccc(F)c1`: > 42 µM (inactive); for `O=C(OCCCCOC(=O)c1ccccc1)c1ccccc1`: > 42 µM (inactive).

For `COc1cc(C(=O)COC(=O)c2cc([N+](=O)[O-])ccc2N2CCOCC2)ccc1OC(F)F`, the AC50 was 29.4 µM.

For the compound `O=C1C2C(c3ccccc3)CC=CC2[C@H](c2ccc3ccccc3c2)N1Cc1ccccc1` (stereo partly drawn), the half-maximal activity concentration (AC50) is 11.3 µM. The same measure for `C/C(=N\NC(=O)c1cccc(N/N=C(\C)c2ccc([N+](=O)[O-])cc2)c1)c1ccc([N+](=O)[O-])cc1`: > 42 µM (inactive); for `CC(N=C(NC#N)Nc1ccncc1)C(C)(C)C` (stereo not drawn): > 42 µM (inactive); for `C/C(O)=C(\N=Nc1cc(C)ccc1O)C(N)=O`: > 42 µM (inactive).

As for `COc1ccc(OCC(O)CN2C(=O)NC(C)(C)C2=O)cc1` (stereo not drawn), the AC50 was > 42 µM (inactive). The same measure for `Cn1c(SCC(=O)N/N=C/c2ccc([N+](=O)[O-])s2)nnc1-c1ccc(Cl)cc1`: 10.2 µM; for `CCC(c1nc2ccccc2c(=O)n1-c1nc2ccccc2s1)N1C(=O)c2ccccc2C1=O` (stereo not drawn): > 42 µM (inactive). In the case of `O=C(O)c1cn(Cc2ccccn2)c(=O)c2ccccc12` it was > 42 µM (inactive); in that of `CN(C)S(=O)(=O)c1ccc(Cl)c(NC(=O)CN2C(=O)NC(C)(C3CC3)C2=O)c1` (stereo not drawn), > 42 µM (inactive); in that of `COC(=O)[C@@]12CCCCN1[C@H](c1ccc(-c3ccc(C(C)=O)cc3)cc1)[C@@H]1C(=O)N(C)C(=O)[C@@H]12`, > 42 µM (inactive). In the case of `CCN(CC)c1ccc(N=Cc2c(O)n(Cc3ccccc3)c(=O)[nH]c2=O)cc1` it was > 42 µM (inactive); in that of `CN(CCOc1ccc(Cl)cc1)CC(=O)Nc1ccc(OC(F)F)cc1`, > 42 µM (inactive). With `NC1=NC2(CCCC2)N=C(Nc2ccccc2)N1`, the AC50 is > 42 µM (inactive). In the case of `O=C(CN1CCN(Cc2ccc(Cl)cc2)CC1)N/N=C/c1ccncc1` it was > 42 µM (inactive); in that of `COc1cccc(S(=O)(=O)Nc2cccc(C(=O)N3CCOCC3)c2)c1`, > 42 µM (inactive); in that of `CC1(OC(=O)C2CCCC2)C(=O)C=C2C=C(c3ccsc3)OC=C2C1=O` (stereo not drawn), > 42 µM (inactive).

For the compound `CCOC(=O)C1CCCN(C(=O)/C=C/c2ccc(Cl)cc2)C1` (stereo not drawn), the AC50 is > 42 µM (inactive).

In the case of `COc1ccccc1/C=C/C(=O)N1CCc2cc(OC)c(OC)cc2C1C` (stereo not drawn), the AC50 is > 42 µM (inactive). In the case of `c1ccc(-c2cc3cc4c(cc3cn2)OCO4)cc1` it was 11.7 µM. As for `Cc1ccc(S(=O)(=O)/N=C(/Nc2ccc([N+](=O)[O-])cc2[N+](=O)[O-])c2ccccc2)cc1`, the AC50 was 15.8 µM. The same measure for `Cc1ccc(/C=N/NC(=O)NC23CC4CC(CC(C4)C2)C3)o1`: > 42 µM (inactive); for `Cc1ccc(N/N=C2/CCCNC2=O)cc1`: > 42 µM (inactive). For the compound `Cc1ccc(-c2ccc(/C=N/n3cnnc3)o2)cc1`, the AC50 is > 42 µM (inactive). In the case of `COc1cc(NC(=O)C2=CC(c3ccco3)=NS(=O)(=O)N2C)cc(OC)c1OC` it was > 42 µM (inactive). The same measure for `COc1ccc(/C=N\Nc2ccc([N+](=O)[O-])cc2)c(C(=O)O)c1OC`: > 42 µM (inactive); for `O=[N+]([O-])c1cncc([N+](=O)[O-])c1Nc1ccccc1Cl`: 9.62 µM. In the case of `O=c1c2ccccc2nc(SCc2nnc(-c3ccccc3)o2)n1-c1ccc(F)cc1F` it was > 42 µM (inactive). `O=C(COc1cccc2cccnc12)N1CCc2ccccc21`: the AC50 was > 42 µM (inactive). In the case of `CCn1c(N2CCN(C(=O)C34CC5CC(CC(C5)C3)C4)CC2)nc2ccccc21` it was > 42 µM (inactive); in that of `COc1ccc(/C=N/NC(=O)c2nnn(-c3nonc3N)c2-c2cccs2)cc1OC`, > 42 µM (inactive). The same measure for `O=C(CSc1ncccn1)c1ccccc1Br`: > 42 µM (inactive).

For `O=C(c1cc2c(ccc3ccccc32)oc1=O)N1CCCC1`, the AC50 is > 42 µM (inactive). For the compound `Cc1cc(-c2ccc(Cl)cc2Cl)c(C#N)c(=O)[nH]1`, the AC50 was > 42 µM (inactive). Turning to `O=C(CCN1CCc2ccccc2C1)Nc1ccc2c(c1)OCO2`, the AC50 is > 42 µM (inactive). Turning to `O=C(Nc1ccc(S(=O)(=O)NC2=NCCCCC2)cc1)c1ccc(C(F)(F)F)cc1`, the AC50 is > 42 µM (inactive). With `Cc1ccc(C(=O)c2cc([N+](=O)[O-])ccc2N2CCCCC2)cc1C`, the AC50 is > 42 µM (inactive).

As to `Cc1ccc(C(=O)Nc2ccc3c(c2)OCCO3)c(Cl)c1`, the AC50 was > 42 µM (inactive). Regarding `CC(=O)Nc1ccc(-c2csc(NC(=O)C3CC(=O)N(c4ccc5c(c4)OCCO5)C3)n2)cc1` (stereo not drawn), the AC50 was > 42 µM (inactive). On to `CCOc1ccccc1NC(=O)c1ccc2c(c1)C(=O)N(CC(C)C)C2=O`, for which the AC50 was > 42 µM (inactive). In the case of `c1ccc(CCCc2nc(-c3cccnc3)no2)cc1` it was > 42 µM (inactive); in that of `O=C1COc2ccc(C(=O)COC(=O)c3ncc(Cl)c(Cl)c3Cl)cc2N1`, > 42 µM (inactive); in that of `CCn1cc(CCCC(=O)NCc2ccccc2OC)c2ccccc21`, > 42 µM (inactive). In the case of `O=C(NNC(=O)c1ccccc1O)c1ccco1` it was > 42 µM (inactive); in that of `CC(=O)CSc1ncnc2sc3c(c12)CCCC3`, > 42 µM (inactive). For the compound `COc1ccc(C(=O)COc2ccc3ccc(=O)oc3c2)cc1`, the AC50 is > 42 µM (inactive).

On to `Brc1ccc(-c2cn3cccnc3n2)cc1`, for which the AC50 is > 42 µM (inactive).

On to `COc1ccc(S(=O)(=O)n2nc(-c3ccc(Cl)cc3)cc2N)cc1OC`, for which the AC50 is > 42 µM (inactive).

As usually defined, the AC50 is the concentration at which the activity in the assay is half-maximal.
